Tests used:
[1] = Oral bioavailability in mouse at 2 mg/kg administered via gavage measured up to 24 hrs by LC-MS analysis; type: ADME, organism-based; details: in vivo
[2] = molecular target: T1, Interleukin-1 receptor-associated kinase 4 (Homo sapiens, UniProt Q9NWZ3); experiment: Inhibition of IRAK4 (unknown origin) using FL-IPTSPITTTYFFFKKK peptide and ATP as substrate incubated for 60 mins by fluorescence based caliper assay
T1 sequence (Q9NWZ3 whole entry): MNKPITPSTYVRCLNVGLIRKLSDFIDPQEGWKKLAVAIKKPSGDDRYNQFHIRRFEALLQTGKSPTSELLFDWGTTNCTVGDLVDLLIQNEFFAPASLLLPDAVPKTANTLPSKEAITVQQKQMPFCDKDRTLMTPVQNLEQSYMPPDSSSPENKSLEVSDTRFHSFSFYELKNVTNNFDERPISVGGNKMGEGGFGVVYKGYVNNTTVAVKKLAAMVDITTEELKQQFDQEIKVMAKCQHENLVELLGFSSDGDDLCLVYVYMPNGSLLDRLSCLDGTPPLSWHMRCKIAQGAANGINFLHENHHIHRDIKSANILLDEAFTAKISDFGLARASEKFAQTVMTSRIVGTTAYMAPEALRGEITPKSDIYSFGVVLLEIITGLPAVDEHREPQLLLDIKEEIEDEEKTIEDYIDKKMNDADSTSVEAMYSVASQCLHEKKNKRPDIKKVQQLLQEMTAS

[3] = molecular target: T2, Mast/stem cell growth factor receptor Kit (Homo sapiens, UniProt P10721); experiment: Inhibition of cKit (unknown origin) by functional based assay
T2 sequence (P10721 whole entry): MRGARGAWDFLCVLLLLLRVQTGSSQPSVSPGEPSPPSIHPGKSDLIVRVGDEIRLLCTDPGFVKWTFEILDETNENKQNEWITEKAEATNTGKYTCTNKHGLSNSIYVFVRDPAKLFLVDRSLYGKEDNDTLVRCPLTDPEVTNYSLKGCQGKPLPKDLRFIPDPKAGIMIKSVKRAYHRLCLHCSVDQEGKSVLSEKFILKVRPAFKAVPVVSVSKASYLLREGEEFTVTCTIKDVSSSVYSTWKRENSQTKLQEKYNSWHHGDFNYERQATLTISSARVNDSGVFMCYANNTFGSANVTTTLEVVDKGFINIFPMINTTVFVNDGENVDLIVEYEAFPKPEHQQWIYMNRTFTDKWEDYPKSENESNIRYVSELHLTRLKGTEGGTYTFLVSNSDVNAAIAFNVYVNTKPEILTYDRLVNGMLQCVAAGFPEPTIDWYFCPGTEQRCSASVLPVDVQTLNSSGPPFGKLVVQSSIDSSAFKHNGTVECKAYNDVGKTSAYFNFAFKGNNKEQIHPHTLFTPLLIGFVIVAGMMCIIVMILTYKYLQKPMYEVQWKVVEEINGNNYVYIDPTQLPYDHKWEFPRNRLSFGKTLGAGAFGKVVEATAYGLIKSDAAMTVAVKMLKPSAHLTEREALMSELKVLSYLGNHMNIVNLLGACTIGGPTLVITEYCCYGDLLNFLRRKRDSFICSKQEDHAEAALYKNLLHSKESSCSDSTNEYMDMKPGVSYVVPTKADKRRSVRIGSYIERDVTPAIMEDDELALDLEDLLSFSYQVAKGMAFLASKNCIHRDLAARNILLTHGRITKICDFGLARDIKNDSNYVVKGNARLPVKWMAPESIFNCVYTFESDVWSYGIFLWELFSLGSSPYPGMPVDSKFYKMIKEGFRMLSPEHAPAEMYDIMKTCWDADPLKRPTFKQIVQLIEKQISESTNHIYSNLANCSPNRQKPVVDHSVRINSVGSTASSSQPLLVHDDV

[4] = Stability in human liver microsomes assessed as parent compound remaining; type: ADME, Microsome
[5] = molecular target: T1, Interleukin-1 receptor-associated kinase 4; experiment: Inhibition of IRAK4 in human PBMC assessed as inhibition of LTA-induced IL-6 production preincubated for 30 mins followed by LTA-stimulation and measured after 5 hrs by ELISA; type: cell-based
[6] = AUC in mouse at 2 mg/kg, iv administered as infusion measured up to 24 hrs by LC-MS analysis; type: ADME, organism-based; set-up: time < 24 hr, dose 2 mg/kg, route intravenous; details: in vivo
[7] = molecular target: Mast/stem cell growth factor receptor Kit (Homo sapiens, UniProt P10721, V559D); experiment: Inhibition of recombinant human partial length cKit Val559Asp mutant expressed in bacterial expression system
Chain of Mast/stem cell growth factor receptor Kit (Homo sapiens, UniProt P10721, V559D) (P10721 26-976 V559D limits assumed): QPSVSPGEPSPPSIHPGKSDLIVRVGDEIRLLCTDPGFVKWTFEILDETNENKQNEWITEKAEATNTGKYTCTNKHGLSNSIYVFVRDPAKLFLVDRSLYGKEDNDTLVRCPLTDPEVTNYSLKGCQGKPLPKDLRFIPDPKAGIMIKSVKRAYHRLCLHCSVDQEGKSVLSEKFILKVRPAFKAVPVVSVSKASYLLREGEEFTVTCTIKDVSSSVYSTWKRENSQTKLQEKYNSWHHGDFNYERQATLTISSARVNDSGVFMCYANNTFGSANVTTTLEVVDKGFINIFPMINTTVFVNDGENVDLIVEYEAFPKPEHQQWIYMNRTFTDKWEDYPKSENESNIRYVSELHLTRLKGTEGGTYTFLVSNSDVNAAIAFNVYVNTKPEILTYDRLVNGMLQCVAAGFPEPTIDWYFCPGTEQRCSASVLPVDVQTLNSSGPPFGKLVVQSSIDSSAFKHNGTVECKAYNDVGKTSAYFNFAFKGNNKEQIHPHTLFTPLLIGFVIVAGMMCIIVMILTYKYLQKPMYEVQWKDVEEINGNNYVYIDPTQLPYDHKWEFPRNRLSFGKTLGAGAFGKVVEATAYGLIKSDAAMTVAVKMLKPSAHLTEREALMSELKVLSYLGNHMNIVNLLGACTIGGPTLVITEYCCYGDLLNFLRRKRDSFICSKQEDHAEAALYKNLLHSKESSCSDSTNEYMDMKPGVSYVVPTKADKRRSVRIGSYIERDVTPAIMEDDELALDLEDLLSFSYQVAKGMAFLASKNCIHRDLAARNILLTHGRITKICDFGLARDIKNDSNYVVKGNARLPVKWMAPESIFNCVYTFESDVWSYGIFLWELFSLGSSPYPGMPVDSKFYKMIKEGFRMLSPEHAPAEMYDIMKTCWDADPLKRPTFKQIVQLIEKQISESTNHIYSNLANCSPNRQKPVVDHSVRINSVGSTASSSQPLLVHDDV

[8] = species: Homo sapiens; experiment: Selectivity index, ratio of IC50 for N-terminal His6-tagged human full length recombinant LCK expressed in baculovirus infected Sf21 cells to IC50 for IRAK4 (unknown origin)
[9] = Permeability across apical to basolateral side in human Caco2 cells; details: Caco-2
[10] = molecular target: T3, Mitogen-activated protein kinase kinase kinase 7 (Homo sapiens, UniProt O43318); experiment: Inhibition of human wild type partial length TAK1 (1 to 303 residues) expressed in mammalian expression system
T3 sequence (O43318 whole entry): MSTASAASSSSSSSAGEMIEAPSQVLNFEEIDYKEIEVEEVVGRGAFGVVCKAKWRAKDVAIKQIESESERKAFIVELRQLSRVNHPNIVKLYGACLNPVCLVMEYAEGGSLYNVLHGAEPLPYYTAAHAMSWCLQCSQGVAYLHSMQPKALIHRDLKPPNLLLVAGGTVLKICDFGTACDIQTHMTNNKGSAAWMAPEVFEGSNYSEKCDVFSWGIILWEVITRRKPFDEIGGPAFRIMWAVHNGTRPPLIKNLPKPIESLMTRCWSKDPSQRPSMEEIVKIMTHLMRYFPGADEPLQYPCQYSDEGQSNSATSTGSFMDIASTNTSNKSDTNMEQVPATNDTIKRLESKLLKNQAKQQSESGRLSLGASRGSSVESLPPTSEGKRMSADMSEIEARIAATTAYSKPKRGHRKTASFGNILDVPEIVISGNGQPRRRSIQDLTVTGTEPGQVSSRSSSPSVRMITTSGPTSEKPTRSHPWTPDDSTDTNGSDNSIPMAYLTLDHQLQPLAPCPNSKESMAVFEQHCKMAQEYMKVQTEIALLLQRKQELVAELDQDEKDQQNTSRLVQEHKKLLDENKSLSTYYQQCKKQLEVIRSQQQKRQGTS

[11] = Clearance in mouse at 2 mg/kg, iv administered as infusion or 2 mg/kg, po via gavage measured up to 24 hrs by LC-MS analysis; type: ADME, organism-based; details: in vivo
[12] = Stability in mouse liver microsomes assessed as parent compound remaining measured after 10 mins; type: ADME, Microsome; details: read-out: Stability
[13] = molecular target: T1, Interleukin-1 receptor-associated kinase 4; experiment: Inhibition of IRAK4 in human whole blood assessed as inhibition of LTA-induced IL-6 production preincubated for 30 mins followed by LTA-stimulation and measured after 5 hrs by ELISA; type: tissue-based
[14] = AUC in mouse at 2 mg/kg, po via gavage measured up to 24 hrs by LC-MS analysis; type: ADME, organism-based; set-up: time < 24 hr, dose 2 mg/kg, route oral; details: in vivo
[15] = Half life in mouse at 2 mg/kg, iv administered as infusion or 2 mg/kg, po via gavage measured up to 24 hrs by LC-MS analysis; type: ADME, organism-based; details: in vivo
[16] = molecular target: Mast/stem cell growth factor receptor Kit (Homo sapiens, UniProt P10721, V559D/T670I); experiment: Inhibition of recombinant human partial length cKit Val559Asp/Thr670Ile double mutant expressed in bacterial expression system
Chain of Mast/stem cell growth factor receptor Kit (Homo sapiens, UniProt P10721, V559D/T670I) (P10721 26-976 V559D/T670I limits assumed): as the sequence (P10721 26-976 V559D limits assumed) above, with T645I counted along it

[17] = molecular target: TRAF2 and NCK-interacting protein kinase (Homo sapiens, UniProt Q9UKE5); experiment: Inhibition of human wild type partial length TNIK (D4-K311 residues) expressed in bacterial expression system
Chain of TRAF2 and NCK-interacting protein kinase (Q9UKE5 whole entry, the tested form may be a part): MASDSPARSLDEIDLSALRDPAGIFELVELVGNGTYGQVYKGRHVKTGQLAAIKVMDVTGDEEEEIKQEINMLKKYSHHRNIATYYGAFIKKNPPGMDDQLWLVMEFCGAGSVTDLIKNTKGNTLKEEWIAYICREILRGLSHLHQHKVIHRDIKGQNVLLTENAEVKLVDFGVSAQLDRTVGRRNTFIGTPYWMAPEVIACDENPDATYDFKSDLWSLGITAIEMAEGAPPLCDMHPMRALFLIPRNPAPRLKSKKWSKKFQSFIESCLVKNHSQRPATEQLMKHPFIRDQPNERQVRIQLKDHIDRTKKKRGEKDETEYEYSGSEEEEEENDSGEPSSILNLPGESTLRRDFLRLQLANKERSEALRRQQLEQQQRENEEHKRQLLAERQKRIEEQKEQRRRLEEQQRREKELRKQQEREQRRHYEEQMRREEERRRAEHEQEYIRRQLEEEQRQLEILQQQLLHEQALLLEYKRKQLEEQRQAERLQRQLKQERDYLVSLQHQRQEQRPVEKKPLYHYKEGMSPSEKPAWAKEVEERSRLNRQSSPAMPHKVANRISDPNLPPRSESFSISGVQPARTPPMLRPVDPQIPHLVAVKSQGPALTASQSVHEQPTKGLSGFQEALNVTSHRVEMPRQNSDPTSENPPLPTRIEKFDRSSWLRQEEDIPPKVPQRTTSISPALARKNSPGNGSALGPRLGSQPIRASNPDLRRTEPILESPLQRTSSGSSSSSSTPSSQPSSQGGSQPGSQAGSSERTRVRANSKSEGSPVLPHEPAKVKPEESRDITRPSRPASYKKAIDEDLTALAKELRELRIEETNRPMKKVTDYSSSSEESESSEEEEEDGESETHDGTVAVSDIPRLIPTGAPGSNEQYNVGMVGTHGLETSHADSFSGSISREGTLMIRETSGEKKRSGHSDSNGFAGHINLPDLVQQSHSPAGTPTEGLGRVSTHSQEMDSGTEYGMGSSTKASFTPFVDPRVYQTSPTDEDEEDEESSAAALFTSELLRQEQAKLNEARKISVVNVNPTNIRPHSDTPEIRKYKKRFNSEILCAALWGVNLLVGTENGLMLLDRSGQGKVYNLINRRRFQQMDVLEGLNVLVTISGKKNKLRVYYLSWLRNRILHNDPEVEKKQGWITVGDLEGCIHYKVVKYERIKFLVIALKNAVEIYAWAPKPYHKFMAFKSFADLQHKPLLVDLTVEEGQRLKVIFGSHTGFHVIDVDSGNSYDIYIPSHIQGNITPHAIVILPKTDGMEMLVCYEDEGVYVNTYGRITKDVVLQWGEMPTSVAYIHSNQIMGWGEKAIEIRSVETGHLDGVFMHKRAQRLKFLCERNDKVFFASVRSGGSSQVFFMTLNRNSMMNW

[18] = Volume of distribution at steady state in mouse at 2 mg/kg, iv administered as infusion or 2 mg/kg, po via gavage measured up to 24 hrs by LC-MS analysis; type: ADME, organism-based; details: in vivo, read-out: Vdss
[19] = molecular target: T2, Mast/stem cell growth factor receptor Kit; experiment: Inhibition of recombinant N-terminal GST-tagged human cKit (544 to end residues) expressed in baculovirus infected Sf21 cells
[20] = species: Homo sapiens; experiment: Selectivity index, ratio of IC50 for recombinant N-terminal GST-tagged human cKit (544 to end residues) expressed in baculovirus infected Sf21 cells to IC50 for IRAK4 (unknown origin)
[21] = Clearance in mouse at 2 mg/kg, iv administered as infusion or 10 mg/kg, po via gavage measured up to 24 hrs by LC-MS analysis; type: ADME, organism-based; details: in vivo
[22] = molecular target: T4, Interleukin-1 receptor-associated kinase 4 (Mus musculus) (UniProt Q8R4K2); experiment: In vivo Inhibition of IRAK4 in BALB/c mouse assessed as suppression of TLR2-mediated LTA-induced IL-6 level in serum at 25 mg/kg, po treated 30 mins prior to LTA-stimulation and measured after 90 mins by ELISA relative to control; type: functional, organism-based
T4 sequence (whole entry): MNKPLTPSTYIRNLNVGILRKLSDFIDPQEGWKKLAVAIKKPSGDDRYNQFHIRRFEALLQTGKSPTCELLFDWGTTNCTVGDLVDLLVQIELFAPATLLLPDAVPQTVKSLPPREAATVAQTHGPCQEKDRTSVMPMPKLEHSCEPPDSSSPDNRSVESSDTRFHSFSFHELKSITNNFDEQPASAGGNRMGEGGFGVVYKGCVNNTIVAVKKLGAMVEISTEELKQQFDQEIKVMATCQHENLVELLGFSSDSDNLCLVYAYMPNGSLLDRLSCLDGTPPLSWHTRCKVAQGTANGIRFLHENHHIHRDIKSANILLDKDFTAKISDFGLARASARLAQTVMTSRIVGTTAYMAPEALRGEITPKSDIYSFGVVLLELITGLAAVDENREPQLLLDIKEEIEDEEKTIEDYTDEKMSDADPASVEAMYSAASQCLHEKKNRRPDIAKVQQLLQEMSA

[23] = Time during which drug concentration exceeds IC50 for IRAK4 in mouse whole blood in mouse at 10 mg/kg, po; type: ADME, organism-based; details: in vivo
[24] = molecular target: T5, Interleukin-1 receptor-associated kinase 4 (Mus musculus, UniProt Q8R4K2); experiment: Inhibition of IRAK4 in mouse whole blood; type: tissue-based
T5 sequence (Q8R4K2 whole entry): T4 sequence (whole entry)

[25] = Drug uptake in LTA-treated BALB/c mouse serum at 10 mg/kg, po treated 30 mins prior to LTA-stimulation and measured after 90 mins by LC-MS analysis; type: ADME, organism-based; details: read-out: Drug uptake
[26] = Drug uptake in LTA-treated BALB/c mouse serum at 50 mg/kg, po treated 30 mins prior to LTA-stimulation and measured after 90 mins by LC-MS analysis; type: ADME, organism-based; details: read-out: Drug uptake
[27] = Oral bioavailability in mouse at 10 mg/kg administered via gavage measured up to 24 hrs by LC-MS analysis; type: ADME, organism-based; details: in vivo
[28] = Drug uptake in LTA-treated BALB/c mouse serum at 25 mg/kg, po treated 30 mins prior to LTA-stimulation and measured after 90 mins by LC-MS analysis; type: ADME, organism-based; details: read-out: Drug uptake
[29] = Volume of distribution at steady state in mouse at 2 mg/kg, iv administered as infusion or 10 mg/kg, po via gavage measured up to 24 hrs by LC-MS analysis; type: ADME, organism-based; details: in vivo, read-out: Vdss
[30] = molecular target: T4, Interleukin-1 receptor-associated kinase 4 (Mus musculus); experiment: In vivo Inhibition of IRAK4 in BALB/c mouse assessed as suppression of TLR2-mediated LTA-induced IL-6 level in serum at 10 mg/kg, po treated 30 mins prior to LTA-stimulation and measured after 90 mins by ELISA relative to control; type: functional, organism-based
[31] = Half life in mouse at 2 mg/kg, iv administered as infusion or 10 mg/kg, po via gavage measured up to 24 hrs by LC-MS analysis; type: ADME, organism-based; details: in vivo
[32] = molecular target: T4, Interleukin-1 receptor-associated kinase 4 (Mus musculus); experiment: In vivo Inhibition of IRAK4 in BALB/c mouse assessed as suppression of TLR2-mediated LTA-induced IL-6 level in serum at 50 mg/kg, po treated 30 mins prior to LTA-stimulation and measured after 90 mins by ELISA relative to control; type: functional, organism-based
[33] = AUC in mouse at 10 mg/kg, po via gavage measured up to 24 hrs by LC-MS analysis; type: ADME, organism-based; set-up: time < 24 hr, dose 10 mg/kg, route oral; details: in vivo

## CC(C)Nc1cc(Nc2ccn3nccc3n2)ncc1C(=O)NC[C@@H](F)C(C)(C)O
[1]
  bioavailability: 36%
[2]
  IC50: 3.2 nM
[3]
  IC50: 170 nM
[4]
  Stability: 100%
[5]
  IC50: 100 nM
[6]
  AUC at 24 h: 2.4 µM·h
[7]
  inhibition (INH): Active
[8]
  Ratio IC50: 130
[9]
  Papp A→B: 6.9 ×10⁻⁶ cm/s
[10]
  IC50: 190 nM
[11]
  clearance: 33 mL/min/kg
[12]
  remaining at 10 min: 89%
[13]
  IC50: 340 nM
[14]
  AUC at 24 h: 0.9 µM·h
[15]
  half-life: 2 h
[16]
  inhibition (INH): Not Active
[17]
  IC50: 8 nM
[18]
  Vd: 3 L/kg
[19]
  IC50: 24 nM
[20]
  Ratio IC50: 8

## CC(C)(O)[C@H](F)CNC(=O)c1cnc(Nc2ccc3ncsc3c2)cc1NC1CC1
[21]
  clearance: 47 mL/min/kg
[22]
  inhibition: 95%
[2]
  IC50: 2.4 nM
[4]
  Stability: 90%
[5]
  IC50: 230 nM
[6]
  AUC at 24 h: 1.6 µM·h
[23]
  T>IC50: <= 3 hr
[24]
  IC50: 240 nM
[25]
  concentration at 1.5 h: 0.41 µM
[8]
  Ratio IC50: 170
[9]
  Papp A→B: 8.1 ×10⁻⁶ cm/s
[12]
  remaining at 10 min: 89%
[26]
  concentration at 1.5 h: 9.6 µM
[27]
  bioavailability: 40%
[13]
  IC50: 810 nM
[28]
  concentration at 1.5 h: 4.5 µM
[29]
  Vd: 2.1 L/kg
[30]
  inhibition: 50%
[31]
  half-life: 2.2 h
[32]
  inhibition: 99%
[33]
  AUC at 24 h: 3.3 µM·h
